Earlier results in US20220333169A1, “Polygenic Score for Cardiac Heart Failure” (Henry Ford Health System, priority 2019, published 2022).

Test system: heart failure patients
Details: one randomized clinical trial

## COc1ccccc1OCCNCC(O)COc1cccc2[nH]c3ccccc3c12 (stereo not shown) [carvedilol]
  95% confidence interval for change in left ventricular ejection fraction (LVEF): −11.1 to +32.9
